Experimental data: publication PMC10951960, “CGP7930 - An allosteric modulator of GABABRs, GABAARs and inwardly-rectifying potassium channels” (Neuropharmacology, 2023)
Like-named read-outs stand apart in the source and are kept apart here.

Key:
[1] = system: native GABAARs in hippocampal neurons; experiment: muscimol-activated and CGP7930-activated GABAAR currents in hippocampal neurons, Cs+-based internal solution; type: cell-based, rat
Description: (§1) Briefly, single cells derived from dissected hippocampi were seeded onto glass coverslips coated with poly-D-lysine in a plating medium containing minimum essential media with 5% v/v heat-inactivated FCS, 5% v/v heat-inactivated horse serum, penicillin-G/streptomycin (100 U/100 μg/ml), 2 mM L-glutamine, and 20 mM glucose. Two hr after plating the media was changed to a Neurobasal-A based maintenance media supplemented with 1% v/v B-27, penicillin-G/streptomycin (100 U/100 μg/ml), 0.5% v/v Glutamax and 35 mM glucose.
(§2) Spontaneous inhibitory postsynaptic currents (sIPSCs) were recorded from cultured hippocampal neurons at 12–17 days in vitro (DIV). […] For recording K^+ currents in GIRK cells and neurons, the bath solution was switched to a high K^+ solution containing 25 mM KCl and reduced NaCl (120 mM), to shift the equilibrium potential for K^+ from approximately −90 to −47 mV, thus reversing the direction of K^+ current flux to net inward. GABABR-activated K^+ currents in cultured neurons were recorded in the additional presence of 2 mM kynurenic acid and 20 μM picrotoxin.
(§3) Borosilicate glass electrodes (3–5 MΩ) were filled with a K^+-based internal solution for recording GIRK currents containing (mM): 120 KCl, 2 MgCl2, 11 EGTA, 30 KOH, 10 HEPES, 1 CaCl2, 1 GTP, 2 ATP, 14 creatine phosphate, pH 7.0. GABAAR currents and sIPSCs were recorded with a Cs-based internal solution containing (mM): 120 CsCl, 1 MgCl2, 11 EGTA, 30 KOH, 10 HEPES, 1 CaCl2, and 2 K2ATP; pH 7.2. […] Cells were held at −60 mV (sIPSCs) or −60/−70 mV (K^+ currents). Voltage clamp recordings were undertaken after optimising series resistance (Rs, <10 MΩ) and compensating for the whole-cell membrane capacitance. Membrane currents were filtered at 5 kHz (−3 dB, 6th pole Bessel, 36 dB/octave) and stored for analysis with Clampex 10.
(§4) Concentration-response curves were generated by measuring the current (I) for each ligand concentration and normalising to the maximal current response (Imax).

[2] = system: GABAAR-mediated sIPSCs in hippocampal neurons; experiment: phasic inhibition: sIPSCs in cultured hippocampal neurons in the presence of CGP55845 (1 μM); type: cell-based, rat; conditions: mean ± SEM
Description: as §1, §2, §3
sIPSCs were recorded at room temperature (20–23 °C) and detected using WinEDR and WinWCP (Strathclyde Electrophysiology Software UK), and frequency was calculated for 60 s recording epochs. For sIPSC amplitudes, several hundred events were recorded per condition and analysed as an average amplitude per cell.
For kinetic analysis, individual uncontaminated sIPSCs were isolated and the average 10–90% rise time and exponential decay times were measured from the mean sIPSC waveform. Weighted decay times are reported encompassing mono- and bi-exponentially decaying events according to the equation:τw = (A1 *τ1 + A2 *τ2) / (A1 + A2)where τ1 and τ2 are exponential decay time constants, and A1 and A2 are the relative amplitude contributions of τ1 and τ2, respectively.

[3] = target: T1, GABAB receptors (R1a and R2) (Mus musculus, UniProt Q80T41+Q9WV18); experiment: GABA-activated K+ currents in GIRK cells (HEK cells stably expressing Kir3.1/3.2, transfected with GABAB R1a and R2), whole-cell patch clamp; type: cell-based, murine
T1 construct: expressed in transfected cells; host or cells: HEK-293 cells stably expressing Kir3.1/3.2 (GIRK cells)
T1 sequence (Q9WV18 20-960): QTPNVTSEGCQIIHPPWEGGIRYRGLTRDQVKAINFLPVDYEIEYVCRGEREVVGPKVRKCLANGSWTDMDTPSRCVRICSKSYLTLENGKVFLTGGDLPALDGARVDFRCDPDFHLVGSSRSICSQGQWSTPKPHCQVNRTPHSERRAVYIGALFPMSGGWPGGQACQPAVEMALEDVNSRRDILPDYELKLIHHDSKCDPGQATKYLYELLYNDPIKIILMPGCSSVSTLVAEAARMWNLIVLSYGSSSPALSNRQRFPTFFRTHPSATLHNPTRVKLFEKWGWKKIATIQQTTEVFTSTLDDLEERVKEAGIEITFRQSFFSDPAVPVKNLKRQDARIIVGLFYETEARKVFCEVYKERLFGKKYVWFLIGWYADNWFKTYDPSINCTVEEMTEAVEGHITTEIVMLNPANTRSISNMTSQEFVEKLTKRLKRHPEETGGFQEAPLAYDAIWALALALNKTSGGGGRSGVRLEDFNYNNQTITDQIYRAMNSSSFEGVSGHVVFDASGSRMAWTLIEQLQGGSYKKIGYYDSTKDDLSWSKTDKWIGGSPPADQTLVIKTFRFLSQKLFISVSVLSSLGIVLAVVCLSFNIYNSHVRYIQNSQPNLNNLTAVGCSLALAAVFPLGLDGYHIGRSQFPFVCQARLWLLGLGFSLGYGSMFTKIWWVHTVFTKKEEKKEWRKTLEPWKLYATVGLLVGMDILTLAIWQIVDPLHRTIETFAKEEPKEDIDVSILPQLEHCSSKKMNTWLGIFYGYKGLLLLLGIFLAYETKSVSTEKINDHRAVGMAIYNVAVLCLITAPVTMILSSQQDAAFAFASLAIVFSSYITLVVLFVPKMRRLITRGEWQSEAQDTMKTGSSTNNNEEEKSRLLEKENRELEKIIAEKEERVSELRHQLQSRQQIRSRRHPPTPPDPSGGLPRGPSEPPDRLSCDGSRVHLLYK
T1 sequence (Q80T41 41-940): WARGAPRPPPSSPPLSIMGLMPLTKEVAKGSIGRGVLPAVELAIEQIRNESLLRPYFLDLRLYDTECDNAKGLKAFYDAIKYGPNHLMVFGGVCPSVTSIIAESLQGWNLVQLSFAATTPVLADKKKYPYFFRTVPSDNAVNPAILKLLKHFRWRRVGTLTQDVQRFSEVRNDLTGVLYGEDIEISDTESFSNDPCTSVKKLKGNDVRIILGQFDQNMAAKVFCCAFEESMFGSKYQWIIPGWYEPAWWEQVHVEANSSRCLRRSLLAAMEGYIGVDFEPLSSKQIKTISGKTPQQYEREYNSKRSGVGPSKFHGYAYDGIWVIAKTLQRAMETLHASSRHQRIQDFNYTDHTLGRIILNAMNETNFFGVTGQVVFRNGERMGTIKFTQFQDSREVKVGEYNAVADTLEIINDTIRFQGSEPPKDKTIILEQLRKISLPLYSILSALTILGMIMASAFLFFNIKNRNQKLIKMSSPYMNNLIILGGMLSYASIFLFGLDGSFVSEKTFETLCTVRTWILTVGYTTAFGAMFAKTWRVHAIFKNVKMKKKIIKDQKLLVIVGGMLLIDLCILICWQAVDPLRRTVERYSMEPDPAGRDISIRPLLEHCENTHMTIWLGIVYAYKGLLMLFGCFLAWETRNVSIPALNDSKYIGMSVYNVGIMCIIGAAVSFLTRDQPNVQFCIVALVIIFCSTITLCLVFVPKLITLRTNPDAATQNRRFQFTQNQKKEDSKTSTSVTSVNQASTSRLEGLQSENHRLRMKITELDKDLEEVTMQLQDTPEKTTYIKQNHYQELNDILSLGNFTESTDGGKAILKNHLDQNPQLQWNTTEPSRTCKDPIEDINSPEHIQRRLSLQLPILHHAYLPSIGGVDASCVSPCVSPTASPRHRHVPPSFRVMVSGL
Description: CGP55845, and other drugs, were obtained from Merck (Sigma-Aldrich) unless otherwise stated.
All cell culture reagents were acquired from ThermoFisher unless otherwise stated. […] These cells are referred to as GIRK cells throughout the text and were transiently transfected with cDNAs for eGFP, GABAB R1a and R2 in a 1:1:5 ratio applied 1–2 h after cell plating.
Spontaneous inhibitory postsynaptic currents (sIPSCs) were recorded from cultured hippocampal neurons at 12–17 days in vitro (DIV). […] GABABR-activated K^+ currents in cultured neurons were recorded in the additional presence of 2 mM kynurenic acid and 20 μM picrotoxin.
as §3, §4
These cells were bathed in high external K^+ concentration Krebs to reverse the direction of net K^+ current flow.

[4] = system: GABAAR-mediated tonic inhibition in hippocampal neurons; experiment: tonic inhibition: baseline holding current and RMS noise in cultured hippocampal neurons; type: cell-based, rat
Description: as §1, §2, §3
For tonic inhibition, to determine the average holding currents, a 30 s continuous holding current recording was sampled every 1 s, discarding epochs that coincided with sIPSCs. Any effect of CGP7930 or bicuculline on the holding current was defined by subtracting the average holding currents in control and during drug application. The baseline root-mean-square current variance (RMS) was calculated before and during drug treatment. This was estimated from a continuous (20 s) current recording, sampled every 100 ms. The median current was calculated every 5 s and values more than twice the standard deviation from the median (usually due to IPSCs) were eliminated. All drugs were applied using a U-tube rapid drug application system, or more slowly via bath perfusion.
We assessed the effect of CGP7930 on tonic inhibition in hippocampal cultured neurons.

EC50 ([1]; hippocampal neurons, n = 8, read-out: EC50 for direct activation (CGP7930 alone)): 5.2 ± 0.1 µM
EC50 ([1]; ∼EC10-15 muscimol (0.5 μM), direct effect subtracted, n = 10, read-out: EC50 for CGP7930 potentiation of muscimol response): 2 ± 1.1 µM
IC50 ([1]; ∼EC10-15 muscimol (0.5 μM), direct effect subtracted, n = 10, read-out: IC50 of bell-shaped muscimol potentiation curve): 7.9 ± 1.8 µM
potentiation reached, of the maximum GABA current activation of GABABRs ([3]; GIRK cells, ∼EC20 GABA): ~30%
concentration at which GABABR signalling is inhibited ([3]; highlights statement): > 3 µM
EC50 ([3]; read-out: EC50 for CGP7930 modulating EC20 GABAB receptor activated currents): 11.1 ± 7 µM
IC50 ([3]; read-out: IC50 for CGP7930 modulating EC20 GABAB receptor activated currents): 10.5 ± 2 µM
Compound: CC(C)(CO)Cc1cc(C(C)(C)C)c(O)c(C(C)(C)C)c1 [CGP7930, 3-(3′,5′-Di-tert-butyl-4′-hydroxy) phenyl-2,2-dimethylpropanol]
maximal direct activation compared to maximal GABAAR activation by saturating muscimol ([1]; hippocampal neurons, n = 8): 42.1 ± 1.8%
sIPSC Amplitude ([2]; 100 nM): −70.0 ± 8.9 (7) pA
sIPSC Decay τ (weighted decay time) ([2]; 100 nM): 61.9 ± 7.2 (7) ms
sIPSC Frequency ([2]; 100 nM): 3.28 ± 0.62 (8) Hz
sIPSC Rise time (10–90%) ([2]; 100 nM): 2.5 ± 0.20 (9) ms
sIPSC Amplitude ([2]; 500 nM): −73.9 ± 8.8 (7) pA
sIPSC Decay τ (weighted decay time) ([2]; 500 nM): 100.8 ± 11 (7) ms
sIPSC Frequency ([2]; 500 nM): 1.53 ± 0.32 (8) Hz
sIPSC Rise time (10–90%) ([2]; 500 nM): 3.2 ± 0.39 (9) ms
sIPSC Amplitude ([2]; 1 μM): −124.6 ± 37.7 (7) pA
sIPSC Decay τ (weighted decay time) ([2]; 1 μM): 205.5 ± 117 (7) ms
sIPSC Frequency ([2]; 1 μM): 0.38 ± 0.07 (8) Hz
sIPSC Rise time (10–90%) ([2]; 1 μM): 16.1 ± 5.2 (9) ms
direct receptor activation of GABABRs ([3]; GIRK cells, CGP7930 pre-applied alone): no indication of direct receptor activation
Membrane current RMS noise ([4]; 100 nM): 6.4 ± 0.4 (9) pA
Membrane current RMS noise ([4]; 500 nM): 8.6 ± 0.9 (9) pA
Tonic currents (change in baseline holding current) ([4]; 500 nM to 1 μM): −441.6 ± 124.7 (9) pA
Membrane current RMS noise ([4]; 1 μM): 12.7 ± 1.7 (9) pA
Membrane current RMS noise ([4]; 1 μM + Bic (50 μM bicuculline)): 5.7 ± 0.5 (9) pA
Tonic currents (change in baseline holding current) ([4]; 1 μM CGP7930 to 50 μM bicuculline (Bic)): 372.0 ± 88.5 (9) pA
Tonic currents (change in baseline holding current) ([4]; 100–500 nM): −115.6 ± 37.8 (9) pA
Tonic currents (change in baseline holding current) ([4]; Control to 100 nM): −21.41 ± 5.4 (9) pA
